Measurements as given in the supplement of paper PMC4862054.

What was measured:
Conditions in all cases: incubation time: 72 h
MDA-MB-436 [1] = test: drug sensitivity score (DSS), CellTiter-Glo (DSS (AUC-based score)); higher = stronger drug effect (viability inhibition or cytotoxicity); extreme values may be limits of the assay
In short: (§1)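 After 72 h of incubation in 384-well plates with compound at 5 concentrations (10-fold steps, 10,000-fold range set per compound), breast cancer cell lines seeded in 20 µl suspension were read first for CellTox Green fluorescence at 485/520 nm. CellTiter-Glo luminescence was measured next, after 10 min at room temperature. Normalisation on each plate used 0.1 % DMSO and a positive kill control, and the drug sensitivity score was computed from the area under the fitted dose-response curve.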

CAL-148 [2] = test: as above
In short: as §1

MDA-MB-453 = test: normalised viability (% of control), CellTiter-Blue; higher = more viable cells (about 100 = DMSO control)
In short: (§2)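 Each value is normalised viability at a single listed concentration of the series. Breast cancer cell lines in 384-well plates were incubated 72 h with compound and read by CellTiter-Blue fluorescence at 560/590 nm, with vehicle set to 100 and a positive kill control to 0 on every plate.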

HCC1599 = test: as above
In short: as §2

CAL-120 = test: as above
In short: as §2

SK-BR-3 = test: as above
In short: as §2

CAL-85-1 = test: as above
In short: as §2

MDA-MB-436 [3] = test: as above
In short: as §2

CAL-148 [4] = test: as above
In short: as §2

MDA-MB-231 = test: as above
In short: as §2

CAL-51 = test: as above
In short: as §2

HCC1937 = test: as above
In short: as §2

MFM-223 = test: as above
In short: as §2

HCC1143 = test: as above
In short: as §2

HDQ-P1 = test: as above
In short: as §2

MDA-MB-468 = test: as above
In short: as §2

DU-4475 = test: as above
In short: as §2

BT-549 = test: as above
In short: as §2

BT-474 = test: as above
In short: as §2

Hs578T = test: as above
In short: as §2

CCN(CC)CCOc1ccc(C(=C(Cl)c2ccccc2)c2ccccc2)cc1 [Clomifene]
Conditions	drug sensitivity score
CAL-148 [2]	0
MDA-MB-436 [1]	0

normalised viability [%]
Conditions	3 nM	10 nM	30 nM	100 nM	1000 nM	10000 nM
BT-474	–	118	–	–	111	17.1
BT-549	–	109	–	–	96.6	36
CAL-51	95.6	–	90.3	98.9	–	–
CAL-85-1	91.3	–	92.4	91.2	–	–
CAL-120	–	93.4	–	–	95.3	18
CAL-148 [4]	88.2	–	94.8	101	–	–
DU-4475	101	–	98.4	111	–	–
HCC1143	–	86.2	–	–	84	85.2
HCC1599	–	93.8	–	–	106	68.1
HCC1937	–	115	–	–	117	55.6
HDQ-P1	133	–	130	114	–	–
Hs578T	–	105	–	–	121	59.8
MDA-MB-231	–	98.8	–	–	93.8	14.1
MDA-MB-436 [3]	–	119	–	–	109	27.5
MDA-MB-453	116	–	114	104	–	–
MDA-MB-468	–	98.2	–	–	98.1	6.16
MFM-223	–	102	–	–	106	28.3
SK-BR-3	–	105	–	–	105	67.2

C[C@@H]1C[C@H]2[C@@H]3CCC4=CC(=O)C=C[C@]4(C)[C@@]3(F)[C@@H](O)C[C@]2(C)[C@@]1(O)C(=O)CO [Dexamethasone]
Conditions	drug sensitivity score
CAL-148 [2]	0
MDA-MB-436 [1]	0

normalised viability [%]
Conditions	3 nM	10 nM	30 nM	100 nM	1000 nM	10000 nM
BT-474	–	110	–	–	119	118
BT-549	–	93.6	–	–	90.3	93.5
CAL-51	106	–	91.9	95.6	–	–
CAL-85-1	102	–	93.1	110	–	–
CAL-120	–	76	–	–	77	80.1
CAL-148 [4]	93.6	–	108	99.2	–	–
DU-4475	90	–	86.9	98.3	–	–
HCC1143	–	76.5	–	–	89.1	81.2
HCC1599	–	124	–	–	82.1	86.7
HCC1937	–	82.5	–	–	100	78.9
HDQ-P1	111	–	100	108	–	–
Hs578T	–	120	–	–	122	98
MDA-MB-231	–	125	–	–	111	146
MDA-MB-436 [3]	–	127	–	–	89.6	104
MDA-MB-453	110	–	78.2	76.3	–	–
MDA-MB-468	–	114	–	–	112	100
MFM-223	–	93.4	–	–	94.2	87.2
SK-BR-3	–	99.2	–	–	86.7	93

CC(C)C(=O)Nc1ccc([N+](=O)[O-])c(C(F)(F)F)c1 [Flutamide]
Conditions	drug sensitivity score
CAL-148 [2]	0
MDA-MB-436 [1]	0

normalised viability [%]
Conditions	3 nM	10 nM	30 nM	100 nM	1000 nM	10000 nM
BT-474	–	117	–	–	115	116
BT-549	–	89.7	–	–	84.3	90
CAL-51	118	–	108	106	–	–
CAL-85-1	101	–	91.8	101	–	–
CAL-120	–	96.7	–	–	95.6	96.8
CAL-148 [4]	95.5	–	99.9	103	–	–
DU-4475	111	–	85.1	97.2	–	–
HCC1143	–	82	–	–	86.3	82.5
HCC1599	–	105	–	–	114	118
HCC1937	–	96.9	–	–	84.2	97
HDQ-P1	109	–	105	109	–	–
Hs578T	–	96.4	–	–	109	96.7
MDA-MB-231	–	93.7	–	–	99.5	102
MDA-MB-436 [3]	–	91.5	–	–	95.4	91.6
MDA-MB-453	123	–	94.8	107	–	–
MDA-MB-468	–	97.6	–	–	103	111
MFM-223	–	89.4	–	–	84.8	109
SK-BR-3	–	108	–	–	106	106

COc1cc2c(Oc3ccc(NC(=O)C4(C(=O)Nc5ccc(F)cc5)CC4)cc3F)ccnc2cc1OCCCN1CCOCC1 [Foretinib]
Conditions	drug sensitivity score
CAL-148 [2]	1.11
MDA-MB-436 [1]	0.456

normalised viability [%]
Conditions	0.3 nM	1 nM	3 nM	10 nM	100 nM	1000 nM
BT-474	–	102	–	–	117	84.3
BT-549	–	79	–	–	101	72
CAL-51	99.1	–	88.6	95.2	–	–
CAL-85-1	95	–	86.3	95.8	–	–
CAL-120	–	88.3	–	–	95.4	41.8
CAL-148 [4]	99.8	–	97.6	96.4	–	–
DU-4475	104	–	91.8	105	–	–
HCC1143	–	104	–	–	103	82.8
HCC1599	–	77.2	–	–	89.9	72.6
HCC1937	–	80.8	–	–	91.3	64.9
HDQ-P1	107	–	99.2	105	–	–
Hs578T	–	114	–	–	106	61
MDA-MB-231	–	97.8	–	–	113	50.6
MDA-MB-436 [3]	–	132	–	–	77.8	84
MDA-MB-453	115	–	91.6	85.9	–	–
MDA-MB-468	–	102	–	–	111	52.4
MFM-223	–	102	–	–	58.5	35
SK-BR-3	–	97.5	–	–	102	77.5

NC(=O)NO [Hydroxyurea]
Conditions	drug sensitivity score
CAL-148 [2]	0
MDA-MB-436 [1]	0

normalised viability [%]
Conditions	30 nM	100 nM	300 nM	1000 nM	10000 nM	100000 nM
BT-474	–	110	–	–	111	110
BT-549	–	82.8	–	–	93.8	87
CAL-51	103	–	107	104	–	–
CAL-85-1	104	–	93.2	105	–	–
CAL-120	–	113	–	–	95.4	101
CAL-148 [4]	106	–	116	112	–	–
DU-4475	122	–	115	98.3	–	–
HCC1143	–	99.1	–	–	99.3	92.4
HCC1599	–	107	–	–	87.4	95.9
HCC1937	–	86.9	–	–	81.2	72.7
HDQ-P1	108	–	122	111	–	–
Hs578T	–	110	–	–	104	90.3
MDA-MB-231	–	113	–	–	98.8	93.2
MDA-MB-436 [3]	–	99.4	–	–	89.4	102
MDA-MB-453	124	–	102	116	–	–
MDA-MB-468	–	110	–	–	111	108
MFM-223	–	105	–	–	98.8	116
SK-BR-3	–	114	–	–	117	114

O=NN(CCCl)C(=O)NC1CCCCC1 [Lomustine]
Conditions	drug sensitivity score
CAL-148 [2]	0
MDA-MB-436 [1]	0

normalised viability [%]
Conditions	3 nM	10 nM	30 nM	100 nM	1000 nM	10000 nM
BT-474	–	108	–	–	114	128
BT-549	–	84.4	–	–	86.6	84.6
CAL-51	110	–	109	110	–	–
CAL-85-1	104	–	88	104	–	–
CAL-120	–	93.9	–	–	91.3	105
CAL-148 [4]	100	–	113	99.4	–	–
DU-4475	117	–	98.7	88.2	–	–
HCC1143	–	89.3	–	–	90.5	89.5
HCC1599	–	108	–	–	81.4	117
HCC1937	–	92	–	–	90.4	96
HDQ-P1	117	–	98.7	105	–	–
Hs578T	–	105	–	–	98.1	98.7
MDA-MB-231	–	110	–	–	100	95.9
MDA-MB-436 [3]	–	108	–	–	95.5	97.7
MDA-MB-453	120	–	102	94.7	–	–
MDA-MB-468	–	100	–	–	98.1	95.6
MFM-223	–	84.7	–	–	87.9	54.7
SK-BR-3	–	97.3	–	–	125	96

O=C(O)CC[C@H]1CC[C@@](c2cc(F)ccc2F)(S(=O)(=O)c2ccc(Cl)cc2)CC1 [MK-0752]
Conditions	drug sensitivity score
CAL-148 [2]	0
MDA-MB-436 [1]	0

normalised viability [%]
Conditions	0.3 nM	1 nM	3 nM	10 nM	100 nM	1000 nM
BT-474	–	121	–	–	128	134
BT-549	–	93.4	–	–	80.3	99.1
CAL-51	106	–	101	98.8	–	–
CAL-85-1	98.7	–	82.4	103	–	–
CAL-120	–	90.2	–	–	97.2	95.7
CAL-148 [4]	99.1	–	109	111	–	–
DU-4475	115	–	91.5	101	–	–
HCC1143	–	81.5	–	–	108	89.4
HCC1599	–	98.2	–	–	81.8	74.7
HCC1937	–	96	–	–	86.9	92.1
HDQ-P1	122	–	96.5	115	–	–
Hs578T	–	137	–	–	103	113
MDA-MB-231	–	97.7	–	–	92.5	89.7
MDA-MB-436 [3]	–	109	–	–	92.2	111
MDA-MB-453	113	–	107	125	–	–
MDA-MB-468	–	98.9	–	–	94.9	110
MFM-223	–	103	–	–	94.3	97.9
SK-BR-3	–	106	–	–	105	111

NC1(c2ccc(-c3nc4ccn5c(=O)[nH]nc5c4cc3-c3ccccc3)cc2)CCC1 [MK-2206]
Conditions	drug sensitivity score
CAL-148 [2]	1.35
MDA-MB-436 [1]	0

normalised viability [%]
Conditions	0.3 nM	1 nM	3 nM	10 nM	100 nM	1000 nM
BT-474	–	115	–	–	92.3	54
BT-549	–	101	–	–	106	85.3
CAL-51	104	–	101	99.6	–	–
CAL-85-1	104	–	95	100	–	–
CAL-120	–	111	–	–	106	79.2
CAL-148 [4]	102	–	106	110	–	–
DU-4475	120	–	111	107	–	–
HCC1143	–	105	–	–	108	87.7
HCC1599	–	98.8	–	–	95.7	62.3
HCC1937	–	87.4	–	–	98.5	104
HDQ-P1	110	–	111	109	–	–
Hs578T	–	118	–	–	124	85.2
MDA-MB-231	–	127	–	–	95.9	104
MDA-MB-436 [3]	–	104	–	–	80.7	81
MDA-MB-453	112	–	95.2	96.6	–	–
MDA-MB-468	–	108	–	–	90.7	72.9
MFM-223	–	109	–	–	96.8	19.8
SK-BR-3	–	107	–	–	76.2	42.1
